Results: patent publication US8551951B2, “Pharmaceutical preparations and methods for inhibiting tumors” (Aenorasis SA Pharmaceuticals and Medical Devices, priority 2000, dated 2013)

What was measured:
PC-3 cells = assay: DNA fragmentation assay (DNA ladder, apoptosis); type: cell-based, human
Description: Cell apoptosis result in DNA fragmentation can be evaluated by the presence of a DNA ladder visualized when DNA is run on a 1.2% agarose gel. DNA ladder assay (apoptosis assay) was performed following exposure of PC-3 to various concentrations of the polypeptides for 72 hours. The polypeptides that were used in this particular experiment are polypeptide 7-21 (SEQ ID NO: 4), polypeptide PCK3145 (SEQ ID NO: 5) and polypeptide 76-94 (SEQ ID NO: 6). […] This effect was especially evident following treatment with PCK3145 (SEQ ID NO: 5), which is illustrated by FIG. 7. Lane 1 of the gel illustrated in FIG. 7 represents a lambda HindIII digest standard.
Apoptosis of PC-3 cells, following a 72 hours exposure to PCK3145 at 500 μg/ml concentration, was evaluated in supplemented media by DNA fragmentation assay. Doxorubicin was used as a reference positive control. Untreated cells and PCK3145-treated cells were harvested and the DNA was isolated. Isolated DNA was run on a 1.2% agarose gel containing Ethidium Bromide (EtBr). […] Lane 1 of the gel illustrated in FIG. 25 represents the DNA marker (100 base pair DNA ladder). Lane 2 of the gel illustrated in FIG. 25 represents a control of untreated PC-3 cells.

Mat Ly Lu (MLL) tumor [1] = assay: Study MLL-1, Mat LyLu tumor implanted in nude mice; type: in vivo; conditions: Doxorubicin 5 mg/kg i.v. single bolus on day 3; p=0.006
Description: (§1) Studies MLL-1 and MLL-2 were performed as follows; on day 0, male Copenhagen rats were injected subcutaneously with 5×10^5 Mat LyLu cells per rat. These cells were derived from cultures of Mat LyLu cell line grown in RPMI media containing 10% (v/v) of fetal calf serum in logarithmic phase of growth. Cells were harvested from the culture flasks by trypsinization, were centrifuged at 1200 rotation per minute (rpm) and washed three timed with Hanks balanced salt solution (HBSS). Following washing, cells were counted and adjusted to a concentration of 5×10^6 cells/ml in HBSS. A 0.1 ml volume of tumor cell inoculum containing 5×10^5 cells was administered subcutaneously into the flank region of each rat. Three days after tumor cell implantation (i.e., inoculation), animals were treated daily by a subcutaneous injection of the desired polypeptide until day 13.
Experiments illustrated in FIG. 12 show the anti-tumor efficacy validation of rHuPSP94 against Mat LyLu (MLL) tumor implanted in nude mice (Protocol based on S. Garde et al.; The Prostate, 22: 225-233, 1993).
For study MLL-1 (FIG. 12), tumor-implanted nude mice were separated in different groups, each receiving various amount of rHuPSP94 or control reagents. The different groups used in these experiments are illustrated below. Each group contained 8 mice.

Mat Ly Lu (MLL) tumor [2] = assay: Study MLL-2, Mat Ly Lu tumor implanted in SCID mice; type: in vivo; conditions: Doxorubicin 5 mg/kg i.v. single bolus on day 3; p=0.002
Description: as §1
Experiments illustrated in study MLL-2 show the anti-tumor efficacy validation of rHuPSP94 against Mat Ly Lu (MLL) tumor implanted in severe combined immunodeficiency (SCID) mice (Protocol based on S. Garde et al.; The Prostate, 22: 225-233, 1993).
For study MLL-2 (FIG. 13), tumor-implanted Scid mice were separated in different groups each receiving various amounts of rHuPSP94 or control reagents. The different groups used in these experiments are illustrated below. Each group contained 8 mice.

human PC-3 tumor = assay: Studies PC3-6 and PC3-12, human PC-3 prostate cancer nude mouse xenograft model; type: in vivo, nude mice; conditions: Doxorubicin 10000 μg/kg single bolus i.v. on days 3 and 11 p.t.i
Excerpt: Studies PC3-6 and PC3-12 (FIGS. 26-27) are consecutive group experiments designed to characterize the in vivo activity of PCK3145 in the human PC-3 prostate cancer nude mouse xenograft model and to explore relationships between dose, route and schedule of administration and the efficacy parameters of tumor growth (volume).
PC-3 cells harvested in mid-log phase were inoculated at 5×10^6 cells per mice via the subcutaneous route in the mice's back area. Tumors grown from this inoculum were excised at approximately day 32 to 35 post-tumor implantation (p.t.i) when tumor volume reached 200-300 mm^3 (i.e., cu mm). The necrotic tissue was removed and the viable tumor mass cut into small pieces (approximately 1 to 3 mm^3) were implanted SC in the flank region at two opposite sites of the mouse. Treatment with various concentrations of PCK3145 was initiated at day 3 post-tumor implantation (p.t.i) and was continued daily for 21 days. Subcutaneous injections were done below tumor growth sites. Intra-peritoneal injections were performed in the abdominal region. Intra-venous injections were performed via the lateral tail vein. The experiment was terminated 24 hours after the last treatment. Tumor measurements were taken at Days 11, 14, 16, 18, 20, 22 and 24 post-tumor implantation (p.t.i). Tumor volumes were calculated according to formula (a×b^2×0.5), where a—is the length of the long diameter, and b—is the width of the perpendicular small diameter.
Study No: PC3-6 illustrates the efficacy of PCK3145, injected subcutaneously, in tumor growth retardation in Nude mice, which have received PC-3 implants. Mice were separated in different group each receiving various amounts of PCK3145 (SEQ ID NO: 5) or control reagents. The different groups used in these experiments are illustrated in table 6 below. Each group contained 10 mice. Doxorubicin was administered as single bolus intra-venous injection on days 3 and 11 post-tumor implantation (p.t.i).
Study No: PC3-12 illustrates the efficacy of PCK3145 in tumor growth retardation in Nude mice, which have received PC-3 implants. Mice were separated in different group each receiving various amounts of PCK3145 (SEQ ID NO: 5) or control reagents. PCK3145 was injected either through intra-venous or intra-peritoneal route. The different groups used in these experiments are illustrated in table 7 below. Each group contained 9 mice.

Dunning Mat Ly Lu tumors = assay: Studies MLL-5 and MLL-6, Mat Ly Lu tumor implanted in Copenhagen rats; type: in vivo; conditions: Doxorubicin 5000 μg/kg single bolus i.v. on day 3 p.t.i
Description: Anti-tumor efficacy evaluation of PCK3145 against Mat Ly Lu (MLL) tumor implanted in Copenhagen rats was performed. (Protocol based on S. Garde et al.; The Prostate, 22: 225-233, 1993). Mat LyLu tumor cells were harvested in mid-log phase from the culture flasks by trypsinization, were centrifuged at 1200 rotation per minute (rpm) and washed three timed with Hanks balanced salt solution (HBSS). Following washing, cells were counted and adjusted to a concentration of 5×10^6 cells/ml in HBSS. A 0.1 ml volume of tumor cell inoculum containing 5×10^5 cells was administered subcutaneously into the flank region of each rat. Treatment started at day 3 post-tumor implantation (p.t.i) by local subcutaneous injection (i.e., in the shaved back area just below tumor implantation site) of various PCK3145 concentrations. This treatment was continued daily for 16 days. Experiments were terminated 24 hours after the last treatment. Tumor measurements were taken at days 7, 9, 11, 14, 16 and 18. Tumor volumes are calculated according to formula (a×b^2×0.5), where a—is the length of the long diameter, b—width of the perpendicular small diameter. At day 19 tumors of individual rats were excised and weighed.
Study No: MLL-5 illustrates the efficacy of PCK3145 (SEQ ID NO: 5) compared with polypeptide 7-21 (SEQ ID NO: 4) and polypeptide 76-94 (SEQ ID NO: 6) in tumor growth retardation in Copenhagen rats, which have received Mat Ly Lu implants. Mice were separated in different groups, each receiving various amount of PCK3145 (SEQ ID NO: 5) or control reagents. PCK3145 was injected through the subcutaneous route. The different groups used in these experiments are illustrated in table 8 below. Each group contained 8 mice.
Study No: MLL-6 illustrates the efficacy of PCK3145 (SEQ ID NO: 5) in tumor growth retardation in Copenhagen rats, which have received Mat Ly Lu implants. Mice were separated in different group each receiving various amounts of PCK3145 (SEQ ID NO: 5) or control reagents. PCK3145 was injected through the subcutaneous route. The different groups used in these experiments are illustrated in table 9 below. Each group contained 8 mice. Doxorubicin was administered as single bolus via intra-venous injection on day 3 p.t.i.

Question: With COc1cccc2c1C(=O)c1c(O)c3c(c(O)c1C2=O)C[C@@](O)(C(=O)CO)C[C@@H]3O[C@H]1C[C@H](N)[C@H](O)[C@H](C)O1 [Doxorubicin, reference compound] as the compound, how does the “DNA laddering effect (FIG. 25 lane 3)” value (PC-3 cells; 2 μg/ml) read?
Answer: DNA laddering effect

Question: What about the “DNA laddering effect (FIG. 7 lane 2)” value (PC-3 cells; doxorubicin-treated cells) of the same compound?
Answer: DNA laddering effect

Question: And the tumor weight reduction (Mat Ly Lu (MLL) tumor [1])?
Answer: 48%

Question: What about the tumor weight reduction (Mat Ly Lu (MLL) tumor [2]) of the same compound?
Answer: 82%

Question: And the “tumor growth (volume), study PC3-6” value (human PC-3 tumor)?
Answer: highly significant anti-tumor therapeutic effect

Question: And the “reduction in tumor volumes, study MLL-6” value (Dunning Mat Ly Lu tumors)?
Answer: over 80%
